Laboratory results published in patent US11414416B1, “Compounds and uses thereof” (Foghorn Therapeutics Inc., priority 2019, dated 2022).

Target: Nanoluciferase-BRD9 fusion protein (Homo sapiens (Human), UniProt Q9H8M2)
Assay: SYO1 BRD9 NanoLuc degradation assay
Type: cell-based
Settings: Table 5A; SYO-1 cells expressing 3×FLAG-NLuc-BRD9, 6 hours; read-out: SYO1 BRD9-NanoLuc degradation IC50
Procedure: Procedure: A stable SYO-1 cell line expressing 3×FLAG-NLuc-BRD9 was generated. On day 0 cells were seeded in 30 μL media into each well of 384-well cell culture plates. The seeding density was 8000 cells/well. […] Subsequently plates were incubated for 6 hours in a standard tissue culture incubator and equilibrated at room temperature for 15 minutes. Nanoluciferase activity was measured by adding 15 μL of freshly prepared Nano-Glo Luciferase Assay Reagent (Promega N1130), shaking the plates for 10 minutes and reading the bioluminescence using an EnVision reader.
DMSO treated cells are employed as High Control (HC) and 1 μM of a known BRD9 degrader standard treated cells are employed as Low Control (LC).

Nanoluciferase-BRD9 fusion protein, sequence (Q9H8M2 whole entry, the tested form may be a part): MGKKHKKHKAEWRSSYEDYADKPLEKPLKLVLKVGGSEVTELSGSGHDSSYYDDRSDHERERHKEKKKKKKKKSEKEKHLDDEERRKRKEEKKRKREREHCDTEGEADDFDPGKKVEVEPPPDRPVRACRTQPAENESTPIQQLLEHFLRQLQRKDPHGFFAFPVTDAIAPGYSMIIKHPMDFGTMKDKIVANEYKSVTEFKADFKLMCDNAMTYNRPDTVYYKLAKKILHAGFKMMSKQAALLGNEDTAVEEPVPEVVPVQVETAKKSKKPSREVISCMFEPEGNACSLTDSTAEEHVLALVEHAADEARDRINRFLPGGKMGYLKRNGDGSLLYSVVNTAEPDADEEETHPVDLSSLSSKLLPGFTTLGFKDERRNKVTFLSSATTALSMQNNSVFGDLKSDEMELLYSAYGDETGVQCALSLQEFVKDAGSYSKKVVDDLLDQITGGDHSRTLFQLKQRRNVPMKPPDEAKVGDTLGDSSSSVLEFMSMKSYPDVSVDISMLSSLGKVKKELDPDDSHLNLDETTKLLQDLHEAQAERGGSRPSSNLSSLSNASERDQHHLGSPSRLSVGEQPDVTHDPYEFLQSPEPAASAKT

| SMILES | DC50 [nM] |
| --- | --- |
| COc1cc(-c2cn(C)c(=O)c3cnccc23)cc(OC)c1CN1CC(CC(=O)N2CCC3(CC2)CC(Oc2ccc4c(c2)C(=O)N(C2CCC(=O)NC2=O)C4=O)C3)C1 (centres unmarked) [Compound D80] | < 10 |
| COc1cc(-c2cn(C)c(=O)c3cnccc23)cc(OC)c1CN(C)C1CCN(CCOc2ccc3c(c2)C(=O)N(C2CCC(=O)NC2=O)C3=O)CC1 (centres unmarked) [Compound D51, 5-[2-[4-([[2,6-dimethoxy-4-(2-methyl-1-oxo-2,7-naphthyridin-4-yl)phenyl]methyl] (methyl)amino)piperidin-1-yl]ethoxy]-2-(2,6-dioxopiperidin-3-yl)isoindole-1,3-dione; formic acid] | < 10 |

Same assay, conditions: Table 5B; SYO-1 cells expressing 3×FLAG-NLuc-BRD9, 6 hours; read-out: SYO1 BRD9-NanoLuc degradation IC50

| SMILES | DC50 [nM] |
| --- | --- |
| COc1cc(-c2cn(C)c(=O)c3nc(O)ccc23)cc(OC)c1CN1CCC(CN2CCC3(CC2)CC(Oc2ccc4c(c2)CN(C2CCC(=O)NC2=O)C4=O)C3)CC1 (centres unmarked) [Compound D371] | < 10 |
| COc1cc(-c2cn(C)c(=O)c3cnccc23)cc(OC)c1CN(C)C(=O)CCCCN1CCC2C1CN2c1ccc2c(c1)C(=O)N(C1CCC(=O)NC1=O)C2=O (centres unmarked) [Compound D205] | < 10 |
| COc1cc(-c2cc(C)c(=O)n(C)c2)c(OC)cc1CN1CC(CN2CCC3(CC2)CN(c2ccc4c(c2)C(=O)N(C2CCC(=O)NC2=O)C4=O)C3)C1 (centres unmarked) [Compound D353] | < 10 |
| COc1cc(-c2cc(C)c(=O)n(C)c2)cc(OC)c1CN1CCC(CCN2CCN(c3ccc4c(c3)C(=O)N(C3CCC(=O)NC3=O)C4=O)CC2)CC1 (centres unmarked) [Compound D329] | < 10 |
| COc1cc(-c2cc(C)c(=O)n(C)c2C)cc(OC)c1CN1CC(CN2CCC3(CC2)CN(c2ccc4c(c2)C(=O)N(C2CCC(=O)NC2=O)C4=O)C3)C1 (centres unmarked) [Compound D346] | < 10 |
| COc1cc(-c2cn(C)c(=O)c3cnccc23)cc(OC)c1CN1CCC(c2nc(COc3ccc4c(c3)C(=O)N(C3CCC(=O)NC3=O)C4=O)co2)CC1 (centres unmarked) [Compound D325] | < 10 |
| COc1cc(-c2cn(C)c(=O)c3cnccc23)cc(OC)c1CN(C)CCOCCOCCNc1cccc2nc(C)n(C3CCC(=O)NC3=O)c(=O)c12 (centres unmarked) [DD3] | > 1000 |
| COc1cc(-c2cn(C)c(=O)c3cnccc23)cc(OC)c1CN(C)CCn1cc(COC2CCN(c3ccc4c(c3)C(=O)N(C3CCC(=O)NC3=O)C4=O)CC2)nn1 (centres unmarked) [Compound D278] | 10 to 100 |
| COc1cc(-c2cn(C)c(=O)c3cnccc23)cc(OC)c1CN1CCC2(CC1)CCN(CCCC#Cc1ccc3c(c1)C(=O)N(C1CCC(=O)NC1=O)C3=O)C2 (centres unmarked) [Compound D213] | < 10 |
| COc1cc(-c2cn(C)c(=O)c3ccccc23)cc(OC)c1CN1CC(CN2CCC3(CC2)CN(c2ccc4c(c2)C(=O)N(C2CCC(=O)NC2=O)C4)C3)C1 (centres unmarked) [Compound D356] | < 10 |
| COc1cc(-c2cn(C)c(=O)c3cnccc23)cc(OC)c1CN(C)C(=O)CCCCN1CCCC2(CC(Oc3ccc4c(c3)C(=O)N([C@@H]3CCC(=O)NC3=O)C4=O)C2)C1 (some centres unmarked) [Compound D261] | < 10 |
| COc1cc(-c2cn(C)c(=O)c3cnccc23)cc(OC)c1CN(C)CCCCNC1CC2(C1)CC(Oc1ccc3c(c1)C(=O)N(C1CCC(=O)NC1=O)C3=O)C2 (centres unmarked) [Compound D257] | < 10 |
| COc1cc(-c2cn(C)c(=O)c3cnccc23)cc(OC)c1CN(C)CCCCNC1CC2(C1)CN(c1ccc3c(c1)C(=O)N(C1CCC(=O)NC1=O)C3=O)C2 (centres unmarked) [Compound D250] | < 10 |
| COc1cc(-c2cn(C)c(=O)c3cncn23)cc(OC)c1CN1CC(CN2CCC3(CC2)CN(c2ccc4c(c2)C(=O)N(C2CCC(=O)NC2=O)C4)C3)C1 (centres unmarked) [Compound D361] | < 10 |

The next lines start with the values.

| DC50 [nM] | SMILES |
| --- | --- |
| 100 to 1000 | COc1cc(-c2cn(C)c(=O)c3cnccc23)cc(OC)c1CN1CC(CC(=O)N2CC3(CCN(c4ccc5c(c4)C(=O)N(C4CCC(=O)NC4=O)C5=O)C3)C2)C1 (centres unmarked) [Compound D181] |
| < 10 | COc1cc(-c2cn(C)c(=O)c3cnccc23)cc(OC)c1CN(C)C(=O)CCCCN1CCC2(CC1)CCN(c1ccc3c(c1)C(=O)N(C1CCC(=O)NC1=O)C3=O)C2 (centres unmarked) [Compound D202] |
| < 10 | COc1cc(-c2cn(C)c(=O)c3cnccc23)cc(OC)c1CN1CC2(CCN(C(=O)C#Cc3ccc4c(c3)C(=O)N(C3CCC(=O)NC3=O)C4=O)C2)C1 (centres unmarked) [Compound D239] |
| < 10 | COc1cc(-c2cn(C)c(=O)c3cnccc23)cc(OC)c1CN1CCC2(CC1)CCN(C(=O)CC#Cc1ccc3c(c1)C(=O)N(C1CCC(=O)NC1=O)C3=O)C2 (centres unmarked) [Compound D313] |
| < 10 | COc1cc(-c2cn(C)c(=O)c3cnccc23)cc(OC)c1CN1CC(CC(=O)NC2CC3(CCN(c4ccc5c(c4)C(=O)N(C4CCC(=O)NC4=O)C5=O)CC3)C2)C1 (centres unmarked) [Compound D189] |
| < 10 | COc1cc(-c2cn(C)c(=O)c3cnccc23)cc(OC)c1CN1CC2(CCN(CC#Cc3ccc4c(c3)C(=O)N(C3CCC(=O)NC3=O)C4=O)C2)C1 (centres unmarked) [Compound D306] |
| < 10 | COc1cc(-c2cn(C)c(=O)c3cnccc23)cc(OC)c1CN(C)CCCCNC1CC12CCN(c1ccc3c(c1)C(=O)N(C1CCC(=O)NC1=O)C3=O)C2 (centres unmarked) [Compound D252] |
| < 10 | COc1cc(-c2cn(C)c(=O)c3cnccc23)cc(OC)c1CN1CCC(C(=O)N2CCC3(CC2)CC(Oc2ccc4c(c2)C(=O)N(C2CCC(=O)NC2=O)C4=O)C3)CC1 (centres unmarked) [Compound D221] |
| < 10 | COc1cc(-c2cn(C)c(=O)c3cnccc23)cc(OC)c1CN1CCC2C(C1)CN2C(=O)CCC#Cc1ccc2c(c1)C(=O)N(C1CCC(=O)NC1=O)C2=O (centres unmarked) [Compound D243] |
| < 10 | COc1cc(-c2cn(C)c(=O)c3cnccc23)cc(OC)c1CN1CCC2(C1)CN(CCCC#Cc1ccc3c(c1)C(=O)N(C1CCC(=O)NC1=O)C3=O)C2 (centres unmarked) [Compound D238] |
| < 10 | COc1cc(-c2cn(C)c(=O)c3cnccc23)cc(OC)c1CN1CC2(CCN(C(=O)C#Cc3ccc4c(c3)C(=O)N(C3CCC(=O)NC3=O)C4=O)CC2)C1 (centres unmarked) [Compound D198] |
| < 10 | COc1cc(-c2cn(C)c(=O)c3cnccc23)cc(OC)c1CN1CCN(C(=O)CCC#Cc2ccc3c(c2)C(=O)N(C2CCC(=O)NC2=O)C3=O)CC1 (centres unmarked) [Compound D199] |
| < 10 | COc1cc(-c2cn(C)c(=O)c3cnccc23)cc(OC)c1CN1CCC(n2cc(COC3CN(c4ccc5c(c4)C(=O)N(C4CCC(=O)NC4=O)C5=O)C3)nn2)CC1 (centres unmarked) [Compound D291] |
| < 10 | COc1cc(-c2cn(C)c(=O)c3cnccc23)cc(OC)c1CN(C)C(=O)CCCCN1CCC2(CCN(c3ccc4c(c3)C(=O)N(C3CCC(=O)NC3=O)C4=O)C2)C1 (centres unmarked) [Compound D188] |
| < 10 | COc1cc(-c2cn(C)c(=O)c3cnccc23)cc(OC)c1CN(C)CCCCNC1CC2(CCN(c3ccc4c(c3)C(=O)N(C3CCC(=O)NC3=O)C4=O)CC2)C1 (centres unmarked) [Compound D247] |

Same assay, conditions: Table 5C; SYO-1 cells expressing 3×FLAG-NLuc-BRD9, 6 hours; read-out: SYO1 BRD9-NanoLuc degradation IC50

| DC50 [nM] | SMILES |
| --- | --- |
| < 10 | COc1cc(-c2cn(C)c(=O)c3cnn(C)c23)cc(OC)c1CN1CCC2(CC1)CN(c1ccc3c(c1)C(=O)N(C1CCC(=O)NC1=O)C3)C2 (centres unmarked) [Compound D414] |
| < 10 | C/C=C/Cn1cc(-c2cc(OC)c(CN3CCC4(CC3)CN(c3ccc5c(c3)C(=O)N(C3CCC(=O)NC3=O)C5)C4)c(OC)c2)n2cncc2c1=O (centres unmarked) [Compound D454] |
| < 10 | COc1cc(-c2cc(C(F)F)c(=O)n(C)c2)cc(OC)c1CN1CC(C#Cc2ccc3c(c2)CN(C2CCC(=O)NC2=O)C3=O)C1 (centres unmarked) [Compound D441] |
| < 10 | COc1cc(-c2cn(C)c(=O)c3cn(C)nc23)cc(OC)c1CN1CC(CN2CCC3(CC2)CN(c2ccc4c(c2)C(=O)N(C2CCC(=O)NC2=O)C4)C3)C1 (centres unmarked) [Compound D402] |
| > 1000 | COc1cc(-c2cn(C)c(=O)c3cnccc23)cc(OC)c1CN1CCC2(CC1)CN(c1cncc(C(=O)NC3CCC(=O)NC3=O)n1)C2 (centres unmarked) [Compound D473] |
| < 10 | COc1cc(-c2cc(C(F)F)c(=O)n(C)c2C)cc(OC)c1CN1CCC(CN2CCC3(CC2)CN(c2ccc4c(c2)C(=O)N(C2CCC(=O)NC2=O)C4)C3)CC1 (centres unmarked) [Compound D410] |
| > 1000 | C/C=C/Cn1cc(-c2cc(OC)c(CN3CCN(c4ccc5c(c4)C(=O)N(C4CCC(=O)NC4=O)C5)CC3)c(OC)c2)c2cc(C)[nH]c2c1=O (centres unmarked) [Compound D468] |
| < 10 | COc1cc(-c2cc(C(F)F)c(=O)n(C)c2)cc(OC)c1CN1CCC2(CC1)CN(c1ccc3c(c1)C(=O)N(C1CCC(=O)NC1=O)C3)C2 (centres unmarked) [Compound D425] |
| < 10 | COc1cc(-c2cn(C)c(=O)c3cnn(C)c23)cc(OC)c1CN1CCC2(CC1)CN(c1ccc3c(c1)C(=O)N(C1CCC(=O)NC1=O)C3=O)C2 (centres unmarked) [Compound D413] |
| < 10 | COc1cc(-c2cn(C)c(=O)c3cnccc23)cc(OC)c1CN1CC(Oc2ccc3c(c2)C(=O)N(C2CCC(=O)NC2=O)C3)C1 (centres unmarked) [Compound D378] |
| < 10 | COc1cc(-c2cc(C(F)F)c(=O)n(C)c2)cc(OC)c1CN1CCC2(C1)CN(c1ccc3c(c1)C(=O)N(C1CCC(=O)NC1=O)C3)C2 (centres unmarked) [Compound D403] |
| < 10 | COc1cc(-c2cn(C)c(=O)cc2C)cc(OC)c1CN1CCN(c2ccc3c(c2)C(=O)N(C2CCC(=O)NC2=O)C3=O)CC1 (centres unmarked) [Compound D436] |
| < 10 | COc1cc(-c2cn(C)c(=O)c3[nH]cnc23)cc(OC)c1CN1CCC2(CC1)CN(c1ccc3c(c1)C(=O)N(C1CCC(=O)NC1=O)C3)C2 (centres unmarked) [Compound D434] |
| < 10 | COc1cc(-c2cn(C)c(=O)c3cnccc23)cc(OC)c1CN1CCC2(CC1)CN(c1cc(C(=O)NC3CCC(=O)NC3=O)ncn1)C2 (centres unmarked) [Compound D395] |
| < 10 | COc1cc(-c2cc(C(F)F)c(=O)n(C)c2)cc(OC)c1CN1CCN(CCC2CCN(c3ccc4c(c3)C(=O)N(C3CCC(=O)NC3=O)C4)CC2)CC1 (centres unmarked) [Compound D399] |
| < 10 | Cc1cc(-c2ccc(CN3CCN(c4ccc5c(c4)C(=O)N(C4CCC(=O)NC4=O)C5)CC3)cc2)cn(C)c1=O (centres unmarked) [Compound D460] |
